Test results taken from patent publication US20080279829A1, “Phenyl-(4-Phenyl-Pyrimidin-2-Yl)-Amines For Enhancing Immunotolerance” (priority 2005, published 2008).

Tested on: BALB/c diabetic female mice with C57BI/6 islet allograft
Test: cellular therapy with in vitro TEST COMPOUND-treated BM-DC in islet allograft transplantation
Assay type: in vivo
Conditions: injected i.v. one day before transplantation
Experimental: To further investigate the effect of TEST COMPOUND on murine DCs bone marrow cells from BALB/c mice are differentiated with GM-CSF into bone marrow derived DCs (BM-DCs) in the presence or absence of TEST COMPOUND (20 nM). BM-DC are left immature or activated with LPS.
BM-DC are injected (3×105, i.v.) into BALB/c diabetic female mice one day before C57BI/6 islet allograft transplantation. Graft survival is monitored by weekly measurement of blood glucose level (*two-tailed t test).

## FC(F)(F)c1ccc(Nc2nccc(-c3cccc(Cl)c3)n2)cc1 [Compound B, N-[4-(3-Chloro-phenyl)-pyrimidin-2-yl]-N-(4-trifluoromethyl-phenyl)-amine]
  islets allograft acceptance after injection of LPS-activated (mature) treated recipient type BM-DC: significantly prevents islet graft rejection
